Active and inactive are the calls of the source. No cut-off for these calls is given here.
Legend:
[1] = molecular target: T1, 5-hydroxytryptamine receptor 2C (Homo sapiens, UniProt P28335); assay: Displacement of [3H]LSD from human 5-HT2C receptor expressed in HEK293 cell membrane incubated for 90 mins by microbeta liquid scintillation counting method; format: cell membranes
T1 sequence (P28335 whole entry): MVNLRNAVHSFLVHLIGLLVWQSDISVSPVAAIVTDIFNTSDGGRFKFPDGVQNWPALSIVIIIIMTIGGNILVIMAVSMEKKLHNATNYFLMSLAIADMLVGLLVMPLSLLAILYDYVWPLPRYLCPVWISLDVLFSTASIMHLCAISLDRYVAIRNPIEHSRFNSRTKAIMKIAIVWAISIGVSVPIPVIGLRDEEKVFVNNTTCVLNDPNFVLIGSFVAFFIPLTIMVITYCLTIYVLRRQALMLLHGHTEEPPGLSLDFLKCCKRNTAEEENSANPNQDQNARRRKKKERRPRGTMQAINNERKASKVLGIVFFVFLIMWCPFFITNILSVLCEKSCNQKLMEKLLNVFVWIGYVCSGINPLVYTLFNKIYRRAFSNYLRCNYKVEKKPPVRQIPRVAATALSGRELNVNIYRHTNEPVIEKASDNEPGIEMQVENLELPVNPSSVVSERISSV

[2] = molecular target: 5-hydroxytryptamine receptor 2A (Homo sapiens, UniProt P28223); assay: Agonist activity at human 5-HT2A receptor expressed in HEK293 cells assessed as IP2 production measured after 30 mins incubation by HTRF assay; format: functional, cell-based; details: read-out: EC50
5-hydroxytryptamine receptor 2A, sequence (P28223 whole entry): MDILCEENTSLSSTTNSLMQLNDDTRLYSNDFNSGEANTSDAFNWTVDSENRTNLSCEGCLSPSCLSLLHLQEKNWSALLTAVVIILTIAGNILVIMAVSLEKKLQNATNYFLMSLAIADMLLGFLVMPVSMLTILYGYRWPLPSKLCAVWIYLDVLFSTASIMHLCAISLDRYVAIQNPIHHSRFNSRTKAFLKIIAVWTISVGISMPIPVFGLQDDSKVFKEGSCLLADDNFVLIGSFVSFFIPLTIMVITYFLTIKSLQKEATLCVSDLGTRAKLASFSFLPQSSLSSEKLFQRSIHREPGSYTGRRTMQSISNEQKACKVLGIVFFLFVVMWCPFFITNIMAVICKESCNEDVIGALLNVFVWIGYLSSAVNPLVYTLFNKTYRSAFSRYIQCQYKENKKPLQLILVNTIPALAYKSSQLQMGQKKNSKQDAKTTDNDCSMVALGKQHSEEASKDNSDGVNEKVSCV

[3] = molecular target: 5-hydroxytryptamine receptor 5A (Homo sapiens) (UniProt P47898); assay: Binding affinity to human 5-HT5A receptor (unknown origin) at 10 uM by radioligand displacement assay
5-hydroxytryptamine receptor 5A (Homo sapiens), sequence (P47898 whole entry): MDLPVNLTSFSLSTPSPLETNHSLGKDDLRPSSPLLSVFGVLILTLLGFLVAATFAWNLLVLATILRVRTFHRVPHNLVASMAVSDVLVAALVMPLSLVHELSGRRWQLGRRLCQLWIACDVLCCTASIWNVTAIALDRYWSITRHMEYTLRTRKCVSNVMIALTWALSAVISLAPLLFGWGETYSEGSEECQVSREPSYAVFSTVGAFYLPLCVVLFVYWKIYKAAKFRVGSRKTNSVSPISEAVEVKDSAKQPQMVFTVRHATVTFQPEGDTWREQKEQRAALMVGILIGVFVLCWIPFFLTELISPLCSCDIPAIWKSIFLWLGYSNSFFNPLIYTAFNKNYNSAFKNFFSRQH

[4] = molecular target: T2, 5-hydroxytryptamine receptor 1A (Homo sapiens) (UniProt P08908); assay: Agonist activity at human 5-HT1A receptor expressed in HEK293T cells co-transfected with 22F-Glosensor assessed as inhibition of cAMP production measured after 30 mins incubation by Microbeta2Micro-plate counter analysis; format: functional, cell-based; details: filed as agonist
T2 sequence (whole entry): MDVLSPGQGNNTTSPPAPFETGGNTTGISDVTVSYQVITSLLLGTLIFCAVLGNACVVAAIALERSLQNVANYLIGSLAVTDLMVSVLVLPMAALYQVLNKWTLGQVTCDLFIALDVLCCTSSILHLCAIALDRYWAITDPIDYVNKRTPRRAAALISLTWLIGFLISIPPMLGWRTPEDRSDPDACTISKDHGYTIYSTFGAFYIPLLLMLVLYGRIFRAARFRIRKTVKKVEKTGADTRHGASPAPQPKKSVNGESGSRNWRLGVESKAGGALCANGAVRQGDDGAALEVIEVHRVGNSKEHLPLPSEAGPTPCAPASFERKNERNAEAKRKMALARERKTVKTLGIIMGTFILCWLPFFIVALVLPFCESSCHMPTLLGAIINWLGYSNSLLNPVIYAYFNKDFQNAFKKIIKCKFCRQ

[5] = molecular target: Adrenergic receptor alpha-2 (Rattus norvegicus) (UniProt P22086+P19328+P22909); assay: Displacement of [3H]RX 821002 from rat cerebral cortex alpha2 adrenergic receptor assessed as remaining activity at 10 uM after 60 mins by scintillation counting method relative to control
[6] = molecular target: Muscarinic acetylcholine receptor M1 (Homo sapiens) (UniProt P11229); assay: Displacement of [3H]-Pirenzepine from human muscarinic M1 expressed in CHO-K1 cells membrane at 10 uM incubated for 60 mins by microbeta liquid scintillation counting analysis; format: cell membranes; details: Cell membrane
Muscarinic acetylcholine receptor M1 (Homo sapiens), sequence (P11229 whole entry): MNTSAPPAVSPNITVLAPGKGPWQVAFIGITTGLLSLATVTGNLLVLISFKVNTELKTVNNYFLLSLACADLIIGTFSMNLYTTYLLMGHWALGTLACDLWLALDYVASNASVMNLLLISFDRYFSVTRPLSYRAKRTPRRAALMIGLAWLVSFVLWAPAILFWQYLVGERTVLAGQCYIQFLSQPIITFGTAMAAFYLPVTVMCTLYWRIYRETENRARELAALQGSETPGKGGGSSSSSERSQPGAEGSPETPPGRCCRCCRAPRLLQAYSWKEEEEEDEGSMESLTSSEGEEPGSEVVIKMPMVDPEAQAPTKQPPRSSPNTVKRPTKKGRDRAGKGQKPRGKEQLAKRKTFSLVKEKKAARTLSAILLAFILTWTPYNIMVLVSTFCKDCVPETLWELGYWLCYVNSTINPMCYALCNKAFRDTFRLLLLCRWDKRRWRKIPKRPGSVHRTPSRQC

[7] = molecular target: Muscarinic acetylcholine receptor M4 (Homo sapiens) (UniProt P08173); assay: Displacement of [3H]4-DAMP from human recombinant muscarinic M4 receptor expressed in HEK293 cells at 10 uM incubated for 60 mins by radiometric based scintillation counter assay relative to control; format: cell-based
Muscarinic acetylcholine receptor M4 (Homo sapiens), sequence (P08173 whole entry): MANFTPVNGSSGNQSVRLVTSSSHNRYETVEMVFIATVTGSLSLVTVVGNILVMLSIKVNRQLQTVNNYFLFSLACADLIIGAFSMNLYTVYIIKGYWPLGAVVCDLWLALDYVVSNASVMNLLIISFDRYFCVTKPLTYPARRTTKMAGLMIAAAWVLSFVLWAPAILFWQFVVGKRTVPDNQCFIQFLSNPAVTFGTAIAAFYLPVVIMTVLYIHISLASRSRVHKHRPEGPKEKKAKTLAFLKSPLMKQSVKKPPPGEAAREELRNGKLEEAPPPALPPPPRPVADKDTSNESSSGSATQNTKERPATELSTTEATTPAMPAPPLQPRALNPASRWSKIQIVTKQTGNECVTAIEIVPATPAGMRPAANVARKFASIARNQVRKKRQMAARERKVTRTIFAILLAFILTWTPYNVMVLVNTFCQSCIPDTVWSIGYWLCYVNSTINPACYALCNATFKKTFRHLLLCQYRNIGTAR

[8] = molecular target: Alpha-2A adrenergic receptor (Homo sapiens) (UniProt P08913); assay: Agonist activity at human recombinant adrenergic alpha-2A receptor expressed in CHO-K1 cells co-transfected with 22F-Glosensor assessed as maximal inhibition of cAMP production measured after 30 mins incubation by Microbeta2Micro-plate counter analysis relative to clonidine; format: functional, cell-based; details: filed as agonist
Alpha-2A adrenergic receptor (Homo sapiens), sequence (P08913 whole entry): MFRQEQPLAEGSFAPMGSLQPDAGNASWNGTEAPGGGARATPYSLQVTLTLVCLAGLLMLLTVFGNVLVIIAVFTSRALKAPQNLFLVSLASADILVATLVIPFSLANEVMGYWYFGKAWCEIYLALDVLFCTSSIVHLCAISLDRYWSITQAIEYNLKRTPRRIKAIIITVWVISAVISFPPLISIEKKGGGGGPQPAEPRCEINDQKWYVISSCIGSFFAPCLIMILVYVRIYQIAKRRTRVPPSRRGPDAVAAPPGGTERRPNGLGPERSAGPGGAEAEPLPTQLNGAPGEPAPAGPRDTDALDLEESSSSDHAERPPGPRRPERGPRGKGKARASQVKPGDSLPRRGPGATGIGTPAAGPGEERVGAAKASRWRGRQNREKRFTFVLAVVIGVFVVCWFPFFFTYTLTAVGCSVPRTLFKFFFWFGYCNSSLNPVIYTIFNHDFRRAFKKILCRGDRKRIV

Mus musculus [9] = assay: Psychedelic effect in C57BL/6J mouse assessed as induction of 5-HT2A receptor dependent maximal head-twitch responses by visual observation at 1 mg/kg, sc at 100 mins; format: functional, organism-based
[10] = Cmax in mouse C57BL/6J brain at 3 mg/kg, po measured after 1 hrs; format: ADME, organism-based
Mus musculus [11] = assay: Locomotor activity in C57BL/6J mouse assessed as distance traveled at 3 mg/kg, po measured for 15 to 25 mins (reference value: 1710 +/- 120 cm) by Ethovision tracking system; format: functional; details: time 15-25 min
Mus musculus [12] = assay: Locomotor activity in C57BL/6J mouse assessed as distance traveled at 3 mg/kg, sc measured for 15 to 25 mins (reference value: 1710 +/- 120 cm) by Ethovision tracking system; format: functional; details: time 15-25 min
Mus musculus [13] = assay: Psychedelic effect in C57BL/6J mouse assessed as development of tolerance/ tachyphylaxis at 3 mg/kg, sc measured on day 4 by head-twitch responses test; format: functional, organism-based; details: time 4.0 day
[14] = Ex vivo binding in C57BL/6J mouse brain frontal cortex assessed as inhibition of [3H]Cimbi-36 binding at 1 mg/kg, sc measured after 40 mins by liquid scintillation counting analysis (reference value: 0%); format: functional
[15] = Ex vivo binding in C57BL/6J mouse brain frontal cortex assessed as inhibition of [3H]Cimbi-36 binding at 1 mg/kg, sc measured after 100 mins by liquid scintillation counting analysis (reference value: 0%); format: functional; details: 1.667 h
Hippocampus [16] = assay: Induction of neuroplasticity in C57BL/6J mouse assessed as increase in IGF1 mRNA expression in brain hippocampus at 3 mg/kg, sc single dose by RT-PCR analysis; format: functional, organism-based
Hippocampus [17] = assay: Induction of neuroplasticity in C57BL/6J mouse assessed as increase in mTOR mRNA expression in brain hippocampus at 0.3 mg/kg, sc single dose by RT-PCR analysis; format: functional, organism-based
[18] = Metabolic stability in mouse liver S9 fractions assessed as half life; format: ADME, subcellular; details: liver S9 fraction
[19] = Renal clearance in Wistar rat plasma at 1 mg/kg, iv measured upto 48 hrs; format: ADME, organism-based
[20] = Half life in Wistar rat brain at 1 mg/kg, iv measured upto 48 hrs; format: ADME, organism-based
[21] = MRTlast in Wistar rat brain at 1 mg/kg, iv measured upto 48 hrs; format: ADME, organism-based
[22] = Tmax in Wistar rat brain at 5 mg/kg, po measured upto 48 hrs; format: ADME, organism-based
[23] = Initial plasma concentration in male Sprague-Dawley rat at 1 mg/kg, iv measured upto 8 hrs by LC-MS/MS analysis; format: ADME, organism-based
[24] = AUCinf in male Sprague-Dawley rat brain at 1 mg/kg, iv measured upto 8 hrs by LC-MS/MS analysis; format: ADME, organism-based
[25] = AUCinf in male Sprague-Dawley rat CSF at 1 mg/kg, iv measured upto 8 hrs by LC-MS/MS analysis; format: ADME, organism-based, Cerebrospinal fluid
[26] = MRTinf in beagle dog at 0.4 mg/kg, iv measured upto 24 hrs; format: ADME, organism-based, Canis lupus familiaris; details: in vivo

Question: Which results are given for `COc1cc([Se]C(F)(F)F)c(OC)cc1CCN.Cl`?
Answer: Ki [1]: 95 nM; EC50 [2]: 3.6 nM; Activity [3]: inactive; Emax [4]: 95%; Activity [5]: 97%; inhibition [6]: 88%; inhibition [7]: 86%; Emax [8]: 56%; Activity (Mus musculus [9]): Active; Cmax [10]: 2370 ng/g; Activity (Mus musculus [11]): 3008 cm; Activity (Mus musculus [12]): 2446 cm; Activity (Mus musculus [13]): inactive; inhibition in vivo at 1 mg/kg [14]: 33%; inhibition in vivo at 1 mg/kg [15]: 25%; Activity (Hippocampus [16]): inactive; Activity (Hippocampus [17]): inactive; half-life [18]: > 2 h; CL renal at 48 h [19]: 1.13 mL/min/kg; half-life [20]: 2.44 h; MRT last at 48 h [21]: 2.54 h; Tmax [22]: 2 h; C0 at 8 h [23]: 330 ng/mL; AUC(0-inf) [24]: 3280 ng·h/mL; AUC(0-inf) [25]: 51.4 ng·h/mL; MRT inf [26]: 5.58 h

Source: ChEMBL document CHEMBL5543140 (J Med Chem, 2024)
